Paper PMC10813692 (2024)

Key:
[1] = system: LxC (RNA, aptamer) GGGCAACUCCAAGCUAGAUCUACCGGUUUGGGUAGUGCGAUUCGCACUGAAUGCCGCGUAGGCUUCGCUACUGGCUUCUACUACGUACCCAAAAUGGCUAGCAAAGGAGAAGAACUUUUCACU; assay: ITC; settings: 0.25 mM K+, 20 mM Na+, 5 mM Mg2+; 1x CSB (40 mM HEPES pH 7.4), 25 °C; 30 µM RNA, 500 µM LFX; one-site model
[2] = system: LxCsh (RNA, aptamer) GGGUUUGGGUAGUGCGAUUCGCACUGAAUGCCGCGUAGGCUUCGCUACUGGCUUCUACUACGUACCCAAACCC; assay: ITC; settings: 0.25 mM K+, 20 mM Na+, 5 mM Mg2+; 1x CSB (40 mM HEPES pH 7.4), 25 °C; 30 µM RNA, 500 µM LFX; one-site model
[3] = system: M1 (RNA, aptamer) GGGUAUGGGUAGUGCGAUUCGCACUGAAUGCCGCGUAGGCUUCGCUACUGGCUUCUACUACGUACCCAUACCC; assay: ITC; settings: 0.25 mM K+, 20 mM Na+, 5 mM Mg2+; 1x CSB (40 mM HEPES pH 7.4), 25 °C; 30 µM RNA, 500 µM LFX; one-site model
[4] = system: M2 (RNA, aptamer) GGGUUUGCGUAGUGCGAUUCGCACUGAAUGCCGCGUAGGCUUCGCUACUGGCUUCUACUACGUACGCAAACCC; assay: ITC; settings: 0.25 mM K+, 20 mM Na+, 5 mM Mg2+; 1x CSB (40 mM HEPES pH 7.4), 25 °C; 30 µM RNA, 500 µM LFX; one-site model
[5] = system: M8 (RNA, aptamer) GGGUUUGGGUAGUCGAUUCGACUGAAUGCCGCGUAGGCUUCGCUACUGGCUUCUACUACGUACCCAAACCC; assay: ITC; settings: 0.25 mM K+, 20 mM Na+, 5 mM Mg2+; 1x CSB (40 mM HEPES pH 7.4), 25 °C; 30 µM RNA, 500 µM LFX; one-site model
[6] = system: M9 (RNA, aptamer) GGGUUUGGGUAGUCGUUCGCGACUGAAUGCCGCGUAGGCUUCGCUACUGGCUUCUACUACGUACCCAAACCC; assay: ITC; settings: 0.25 mM K+, 20 mM Na+, 5 mM Mg2+; 1x CSB (40 mM HEPES pH 7.4), 25 °C; 30 µM RNA, 500 µM LFX; one-site model
[7] = system: M3 (RNA, aptamer) GGGUUUGGGUAGUGCGAUUCGCACUGAAGCCGCGUAGGCUUCGCUACUGGCUUCUACUACGUACCCAAACCC; assay: ITC; settings: 0.25 mM K+, 20 mM Na+, 5 mM Mg2+; 1x CSB (40 mM HEPES pH 7.4), 25 °C; 30 µM RNA, 500 µM LFX in syringe
[8] = system: M4 (RNA, aptamer) GGGUUUGGGUAGUGCGAUUCGCACUGAAUGCCGGUAGGCUUCGCUACUGGCUUCUACUACGUACCCAAACCC; assay: ITC; settings: 0.25 mM K+, 20 mM Na+, 5 mM Mg2+; 1x CSB (40 mM HEPES pH 7.4), 25 °C; 30 µM RNA, 500 µM LFX in syringe
[9] = system: M5 (RNA, aptamer) GGGUUUGGGUAGUUUCGACUGAAUGCCGCGUAGGCUUCGCUACUGGCUUCUACUACGUACCCAAACCC; assay: ITC; settings: 0.25 mM K+, 20 mM Na+, 5 mM Mg2+; 1x CSB (40 mM HEPES pH 7.4), 25 °C; 30 µM RNA, 500 µM LFX in syringe
[10] = system: M6 (RNA, aptamer) GGGUUUGGGUAGCGAUUCGCUGAAUGCCGCGUAGGCUUCGCUACUGGCUUCUACUACGUACCCAAACCC; assay: ITC; settings: 0.25 mM K+, 20 mM Na+, 5 mM Mg2+; 1x CSB (40 mM HEPES pH 7.4), 25 °C; 30 µM RNA, 500 µM LFX in syringe
[11] = system: M7 (RNA, aptamer) GGGUUUGGGUAUGAAUGCCGCGUAGGCUUCGCUACUGGCUUCUACUACGUACCCAAACCC; assay: ITC; settings: 0.25 mM K+, 20 mM Na+, 5 mM Mg2+; 1x CSB (40 mM HEPES pH 7.4), 25 °C; 30 µM RNA, 500 µM LFX in syringe
[12] = system: M10 (RNA, aptamer) GGGUUUGGGUAGUGCGAUUCGCACUGAAUGCCGCGUAGUUCGCUACUGGCUUCUACUACGUACCCAAACCC; assay: ITC; settings: 0.25 mM K+, 20 mM Na+, 5 mM Mg2+; 1x CSB (40 mM HEPES pH 7.4), 25 °C; 30 µM RNA, 500 µM LFX in syringe
[13] = system: M11 (RNA, aptamer) GGGUUUGGGUAGUGCGAUUCGCACUGAAUGCUUCGGCUUCUACUACGUACCCAAACCC; assay: ITC; settings: 0.25 mM K+, 20 mM Na+, 5 mM Mg2+; 1x CSB (40 mM HEPES pH 7.4), 25 °C; 30 µM RNA, 500 µM LFX in syringe
[14] = system: M12 (RNA, aptamer) GGGUUUGGGUGAAUGCCGCGUAGGCUUCGCUACUGGCUUCUACUACGUACCCAAACCC; assay: ITC; settings: 0.25 mM K+, 20 mM Na+, 5 mM Mg2+; 1x CSB (40 mM HEPES pH 7.4), 25 °C; 30 µM RNA, 500 µM LFX in syringe
[15] = system: M13 (RNA, aptamer) GGGUUUGGGUAGAAUGCCGCGUAGGCUUCGCUACUGGCUUCUACUACGUACCCAAACCC; assay: ITC; settings: 0.25 mM K+, 20 mM Na+, 5 mM Mg2+; 1x CSB (40 mM HEPES pH 7.4), 25 °C; 30 µM RNA, 500 µM LFX in syringe
[16] = system: M14 (RNA, aptamer) GGGCGCACUGAAUGCCGCGUAGGCUUCGCUACUGGCUUCUACUACGUAUAGUGCGCCC; assay: ITC; settings: 0.25 mM K+, 20 mM Na+, 5 mM Mg2+; 1x CSB (40 mM HEPES pH 7.4), 25 °C; 30 µM RNA, 500 µM LFX in syringe
[17] = system: LxC (RNA, aptamer) GGGCAACUCCAAGCUAGAUCUACCGGUUUGGGUAGUGCGAUUCGCACUGAAUGCCGCGUAGGCUUCGCUACUGGCUUCUACUACGUACCCAAAAUGGCUAGCAAAGGAGAAGAACUUUUCACU; assay: elution from immobilised Capture-ON; settings: 0.25 mM K+, 20 mM Na+, 5 mM Mg2+, 1x CSB (40 mM HEPES pH 7.4), DNA Capture-ON displaced
[18] = system: LxA1 (RNA, aptamer) GGGCAACUCCAAGCUAGAUCUACCGGUUUUUUCAGGCGGCUUAAAAACCAGGAAAGGUGGAGACUUCUACUGGCUUCUAUCCAGCCGGUAAAAUGGCUAGCAAAGGAGAAGAACUUUUCACU; assay: elution from immobilised Capture-ON; settings: 0.25 mM K+, 20 mM Na+, 5 mM Mg2+; 1x CSB (40 mM HEPES pH 7.4); 1 mM LFX; DNA Capture-ON displaced
[19] = system: LxA2 (RNA, aptamer) GGGCAACUCCAAGCUAGAUCUACCGGUUUUUUCUGGCGGCUUAAAAACCAGGAAAGGUGGAGACUUCUACUGGCUUCUAUCCAGCCGGUAAAAUGGCUAGCAAAGGAGAAGAACUUUUCACU; assay: elution from immobilised Capture-ON; settings: 0.25 mM K+, 20 mM Na+, 5 mM Mg2+; 1x CSB (40 mM HEPES pH 7.4); 1 mM LFX; DNA Capture-ON displaced
[20] = system: LxB1 (RNA, aptamer) GGGCAACUCCAAGCUAGAUCUACCGGUGUGUAACGGAAGCACAAAGGUGCCUCCUACAGCAGGUCUUCUACUGGCUUCUACUGAUACACUAAAAUGGCUAGCAAAGGAGAAGAACUUUUCACU; assay: elution from immobilised Capture-ON; settings: 0.25 mM K+, 20 mM Na+, 5 mM Mg2+, 1x CSB (40 mM HEPES pH 7.4), DNA Capture-ON displaced
[21] = system: LxB2 (RNA, aptamer) GGGCAACUCCAAGCUAGAUCUACCGGUGUGUAACGGAAGCACAAAGGUGCCUCCUACAGCAGGUCUUCUACUGGCUUCUACUGAUACGCUAAAAUGGCUAGCAAAGGAGAAGAACUUUUCACU; assay: elution from immobilised Capture-ON; settings: 0.25 mM K+, 20 mM Na+, 5 mM Mg2+, 1x CSB (40 mM HEPES pH 7.4), DNA Capture-ON displaced
[22] = system: LxD (RNA, aptamer) GGGCAACUCCAAGCUAGAUCUACCGGUCUAGUGCCUCAACUAGCCGAACCGUGGUCGUCUUCAUGCCUACUGGCUUCUACGAGAUAAAUAAAAUGGCUAGCAAAGGAGAAGAACUUUUCACU; assay: elution from immobilised Capture-ON; settings: 0.25 mM K+, 20 mM Na+, 5 mM Mg2+, 1x CSB (40 mM HEPES pH 7.4), DNA Capture-ON displaced
[23] = system: LxE (RNA, aptamer) GGGCAACUCCAAGCUAGAUCUACCGGUCGUAGUGGACCUGUUUAGGUUUGCAUACGUUAGAUGUCUUCUACUGGCUUCUAAAUCGAACCGAAAAUGGCUAGCAAAGGAGAAGAACUUUUCACU; assay: elution from immobilised Capture-ON; settings: 0.25 mM K+, 20 mM Na+, 5 mM Mg2+; 1x CSB (40 mM HEPES pH 7.4); 1 mM LFX; DNA Capture-ON displaced
[24] = system: LxF (RNA, aptamer) GGGCAACUCCAAGCUAGAUCUACCGGUGCAGGUCUGGGAACUCGUUCCCGGCUCCAGCUGGAUUCUUCUACUGGCUUCUAGCCCGACCGGAAAAUGGCUAGCAAAGGAGAAGAACUUUUCACU; assay: elution from immobilised Capture-ON; settings: 0.25 mM K+, 20 mM Na+, 5 mM Mg2+; 1x CSB (40 mM HEPES pH 7.4); 1 mM LFX; DNA Capture-ON displaced
[25] = system: LxCsh (RNA, aptamer) GGGUUUGGGUAGUGCGAUUCGCACUGAAUGCCGCGUAGGCUUCGCUACUGGCUUCUACUACGUACCCAAACCC; assay: lateral flow assay, Capture-ON displacement; settings: 0.25 mM K+, 20 mM Na+, 5 mM Mg2+, 1x CSB (40 mM HEPES pH 7.4), room temperature, 6FAM Capture-ON displaced

## C[C@H]1COc2c(N3CCN(C)CC3)c(F)cc3c(=O)c(C(=O)O)cn1c23
[1]
  Kd: 6 µM
[2]
  Kd: 6 µM
[3]
  Kd: 5 ± 6 µM
[4]
  Kd: 4 ± 1 µM
[5]
  Kd: 6 ± 3 µM
[6]
  Kd: 3 ± 3 µM
[7]
  binding: no
[8]
  binding: no
[9]
  binding: no
[10]
  binding: no
[11]
  binding: no
[12]
  binding: no
[13]
  binding: no
[14]
  binding: no
[15]
  binding: no
[16]
  binding: no
[17]; 1 mM LFX
  fraction eluted: 27.4%
[18]
  binding: yes
[19]
  binding: yes
[20]; 1 mM LFX
  binding: yes
[21]; 1 mM LFX
  binding: yes
[22]; 1 mM LFX
  fraction eluted: 47.3%
[23]
  binding: yes
[24]
  binding: yes
[25]; signal at 100 µM and above
  binding: yes

## O=C(O)c1cn(C2CC2)c2cc(N3CCNCC3)c(F)cc2c1=O
[17]; 1 mM CFX, LFX/CFX elution ratio 3.2
  binding: weak
[20]; 1 mM CFX, LFX/CFX elution ratio 2.2
  binding: weak
[21]; 1 mM CFX, LFX/CFX elution ratio 2.1
  binding: weak
[22]; 1 mM CFX, LFX/CFX elution ratio 2.6
  binding: weak
[25]; up to 5000 µM
  binding: weak
